Reference: patent US10980764B1, “Exogenous ketone supplements for reducing anxiety-related behavior” (priority 2016, dated 2021)

Assays:
[1] = Blood βHB and glucose compared between SPD and WAG/Rij rats, Study 1; assay type: in vivo, rat; conditions: for Glucose, Mean Diff., Tukey's multiple comparisons test (Compare S-D to WagRij) / βHB, Mean Diff., Tukey's multiple comparisons test (Compare S-D to WagRij): 7 days:S-D minus 7 days:WR, same supplement (5 vs 2.5 g/kg/day); for βHB levels in WAG/Rij rats compared to SPD rats: before (baseline) and after sub-chronic ketone supplementation
[2] = Body weight, SPD rats, Study 1; assay type: in vivo, rat; conditions: for Body Weight (7 days), Mean Diff., Tukey's multiple comparisons test: in g (unit assumed)
Experimental: The body weight of all animals was recorded before ketone treatments started (before) and after the last ketone treatments (after).
Results were considered significant when p<0.05. […]

[3] = Blood βHB and glucose levels (PRECISION XTRA), WAG/Rij rats, Study 1; assay type: in vivo, rat; conditions: for Blood βHB: WAG/Rij rats, after 7 days of gavaging ~2.5 g/kg b.w./day, compared to baseline; for Glucose, Mean Diff., Tukey's multiple comparisons test (Compare S-D to WagRij) / βHB, Mean Diff., Tukey's multiple comparisons test (Compare S-D to WagRij): WR (WAG/Rij) rats, own Baseline minus 7 days of the same group
[4] = Blood βHB and glucose levels (PRECISION XTRA), SPD rats, Study 1; conditions: for Glucose, Mean Diff., Tukey's multiple comparisons test (Compare S-D to WagRij) / βHB, Mean Diff., Tukey's multiple comparisons test (Compare S-D to WagRij): S-D (SPD) rats, own Baseline minus 7 days of the same group; for Blood glucose levels: at 24 hours; for Blood βHB (90 days), Mean Diff., Tukey's multiple comparisons test: chronic feeding, After:SD (control) minus After:treated group
Experimental: In order to familiarize the animals to the intragastric gavage method, tap water was gavaged for 5 days before ketone supplementation. A total of 48 male SPD rats were fed for 83 days with either standard rodent chow (SD)+water application (˜25 g/kg b.w. water/day) (SD/control group; n=9) or SD+ketone supplementation by gavage.
In the chronic feeding study, blood βHB and glucose levels were measured 24 hours before the 1st day of ketone treatments (baseline levels) and after the 13th week of ketone treatment. In the 7-day oral gavage studies, blood βHB and glucose levels were measured 24 hours before the 1st day of ketone treatments (baseline levels; SPD and WAG/Rij rats) and after the 1st day (SPD rats) and the 7th day (SPD and WAG/Rij rats) of ketone gavaging. In acute study, blood βHB and glucose levels were measured 40 min after ketone treatment. Whole blood samples (10 μL) were taken from the saphenous vein for analysis of blood glucose (mg/dl) and βHB (mmol/1) levels with the commercially available glucose and ketone monitoring system PRECISION XTRA™ (ABBOTT Laboratories, Abbott Park, Ill., USA). The PRECISION XTRA™ ketone monitoring system only measures βHB blood levels; therefore, total blood ketone levels would be higher than measured.
All data are presented as the mean±standard error of the mean (SEM). The effects of ketone supplementations on anxiety level were compared, as well as on blood βHB and glucose levels to control or/and baseline levels. Data analysis was performed using GraphPad PRISM version 6.0a. Results were considered significant when p<0.05. Significance was determined by unpaired t-test. Blood ketone, blood glucose, and body weight change were compared using a two-way ANOVA with Tukey's multiple comparisons test and unpaired t-test.

WAG/Rij rats = test: EPM after 7 days oral gavage, WAG/Rij rats, Study 1; assay type: in vivo, rat; conditions: 7 days gavage ~2.5 g/kg b.w./day, compared to control (SD)
Experimental: To extend the results and ensure that the results were not strain dependent, exogenous ketone supplements were tested on both SPD rats and Wistar Albino Glaxo/Rijswijk (WAG/Rij) rats for 7 days by gavage (5 g/kg/day and 2.5 g/kg/day, respectively, SD+KE and SD+KS), as WAG/Rij rats show reduced activity of GABAergic system (Luhmann H J, et al. Impairment of intracortical GABAergic inhibition in a rat model of absence epilepsy. Epilepsy Res. 1995 September; 22(1):43-51).
EPM (COULBOURN Instruments) was used to assess anxiety-related behavior of the rats after 83 days of chronic feeding or after 7 days of oral gavage. EPM experiments were carried out under non-stressful conditions (in a dimly lit and quiet room) between 12.00 and 14.00 hours.
The rats were transferred in their home cage to the experimental room 30 min prior to beginning the experiment. Briefly, rats were placed in the intersection of the four arms of the EPM, facing the open arm opposite to where the experimenter was and their behavior was recorded for 5 minutes. The amount of time spent and number of entries made on the open arms, closed arms and the center zones were recorded. Latency to entry into the closed arms and the distance travelled in each zones was also measured in chronically treated SPD rats. Notes were made on other ethological measures such as number of rears, head dips, fecal boli, and freezing, or stretched-attend postures.
At the end of the 5-minute test the rats were removed from the maze and placed back into their home cage. The maze was cleaned with 70% alcohol and after it with tap water and dried with paper towel between rats. The primary method for data collection was a video-tracking system with computer interface and video camera (SMART V3.0 PLATFORM, PANLAB, Harvard Apparatus, USA), to automatically collect behavioral data in SPD rats. A blinded observer was present in the testing room separated from the maze by a curtain, and manually collected EPM data in both SPD and WAG/Rij animals at the end of treatments.
Results were considered significant when p<0.05. Significance was determined by unpaired t-test.

[5] = Blood βHB and glucose ~40 min after single dose, 1 year old SPD rats, Study 2; assay type: in vivo, rat; conditions: right after 5 min EPM test, compared to control group
Experimental: One year old SPD rats were gavaged and EPM test was performed 30 min after administration. Treatment groups BD, KE, KEMCT, KSMCT, KEKS.
Another study was carried out using substantially similar methodologies and procedures as in Study 1, specifically using the EPM test to evaluate anxiety-related behavior in 1-year old SD rats when administered ketone supplementation versus control.

[6] = Body weight, SPD rats, Study 3; assay type: in vivo, rat; conditions: compared to control
Experimental: The body weight of all animals was recorded before the first ketone treatment (before) and on the last day of the ketone treatment (after).
Results were considered significant when p<0.05.

[7] = After:SD (control) minus After:treated group
[8] = SPD rats, 7 days of gavaging, compared to baseline
[9] = SPD rats, after 83 days of chronic feeding, compared to control
[10] = SPD rats, 24h:SD (control) minus 24h:treated group

Row | Molecule | Glucose, Mean Diff., Tukey's multiple comparisons test (Compare S-D to WagRij) [1] | βHB, Mean Diff., Tukey's multiple comparisons test (Compare S-D to WagRij) [1] | βHB levels in WAG/Rij rats compared to SPD rats [1] | Body Weight (7 days), Mean Diff., Tukey's multiple comparisons test [2, 7] | Blood βHB [3] | Glucose, Mean Diff., Tukey's multiple comparisons test (Compare S-D to WagRij) [3] | βHB, Mean Diff., Tukey's multiple comparisons test (Compare S-D to WagRij) [3] | Glucose, Mean Diff., Tukey's multiple comparisons test (Compare S-D to WagRij) [4] | βHB, Mean Diff., Tukey's multiple comparisons test (Compare S-D to WagRij) [4] | Blood βHB [4, 8] | Blood βHB [4, 9] | Blood glucose levels ([4]; SPD rats, compared to baseline) | Blood βHB (90 days), Mean Diff., Tukey's multiple comparisons test ([4]; SPD rats) | other results
1 | CC(=O)CC(=O)OCCC(C)OC(=O)CC(C)=O (stereo not shown) [KE, 1,3-butanediol-acetoacetate diester] | 27.5 mg/dL | −0.9653 mmol/1 | Higher | 37.03 | elevated | -2.75 mg/dL | −0.6125 mmol/1 | -1.841 mg/dL | −0.1389 mmol/1 | did not change | elevated | lower | −0.2978 mmol/1 | Body weight ([2]; after chronic feeding (week 13), compared to control, listed as SD+LKE): higher; Body Weight (90 days), Mean Diff., Tukey's multiple comparisons test ([2]; chronic feeding, After:SD (control) minus After:treated group): 73.96; Blood βHB levels ([4]; SPD rats, 24 hours after a single gavage, compared to baseline): elevated; Blood glucose levels ([4]; SPD rats, compared to control group): lower; Blood glucose ([4]; SPD rats, from baseline to 7 days): did not change; Blood Glucose (7 days), Mean Diff., Tukey's multiple comparisons test [4, 10]: 33.11 mg/dL; Blood βHB (7 days), Mean Diff., Tukey's multiple comparisons test [4, 10]: −0.5235 mmol/1; Blood Glucose (7 days), Mean Diff., Tukey's multiple comparisons test ([4]; SPD rats, 24h minus 7days of the same group): -23.02 mg/dL; Blood Glucose (7 days), Mean Diff., Tukey's multiple comparisons test ([4]; SPD rats, own Baseline minus 24h of the same group): 21.18 mg/dL; Time spent in the center (WAG/Rij rats): more time; Blood glucose level [5]: significantly lower; Body weight ([6]; after 7 days of treatment): lower; Body weight ([6]; after chronic feeding): lower
2 | Na^+/K^+-βHB mineral salt [KS] | 15.28 mg/dL | −0.5614 mmol/1 | Higher | 48.25 | elevated | -6.5 mg/dL | −0.5375 mmol/1 | -0.3258 mg/dL | −0.4455 mmol/1 | significant difference | elevated | lower | −0.3653 mmol/1 | Blood βHB (7 days), Mean Diff., Tukey's multiple comparisons test ([4]; SPD rats, 7days:SD (control) minus 7days:treated group): −0.547 mmol/1; Entries to the closed arms (WAG/Rij rats): less frequent; Time spent in the closed arms (WAG/Rij rats): less time; Time spent in the open arms (WAG/Rij rats): more time
